Results reported in patent US20240190864A1 (YA THERAPEUTICS INC, priority 2021, published 2024).

Assays:
BTK = BTK (Homo sapiens, UniProt Q06187); assay: BTK Kinase Test; assay type: biochemical; settings: BTK kinase inhibitory activity; enzyme with compound 30 min, ATP 50 μM, ULight poly GT substrate
Method: Dilute 350 ng/uL BTK mother solution with kinase buffer solution (50 mM HEPES, 10 mM MgCl2, 2 mM DTT, 1 mM EGTA, 0.01% Tween 20), and add 6 μL 1.67×0.134 ng/μL working solution (final concentration 0.08 ng/μL), using the nanoliter sampler, add different compounds dissolved by DMSO into the pores, so that the final concentration of the compound is 1000 nM-0.244 nM, and the final concentration of the positive drug is 50 nM-0.0122 nM. Four times the gradient, a total of seven concentrations are available. At the same time, set up blank control pores (without enzyme) and negative control pores (with enzyme, with solvent DMSO), and set up two double pores. After the enzyme reacts with compound or solvent for 30 min, 5×250 μM ATP (final concentration is 50 μM) and 5×0.5 μM Substrate (final concentration 0.1 μμM. ULight poly GT), mix at 1:1, 4 per hole μL is added into the hole; after sealing, add […] to each hole after reacting at room temperature for 2 hours μL 4×8 nM detection reagent (final concentration is 2 nM, Ab), incubate at room temperature for 1 hour; PE instrument reading board (excitation […], emission 665 nm). Calculate the inhibition rate and calculate the IC50 value.

[1] = tested on: Diffuse large B cell lymphoma cell strain TMD-8; assay: Tumor Cell Proliferation Inhibition Assay (CellTiter-Glo); assay type: cell-based; settings: Homo sapiens, TMD8; TMD-8 cells, incubated with compound 72 hours, 10% fetal calf serum, ATP content
Method: Cell viability was evaluated by measuring a content of triphosadenine (ATP) by using CellTiter-Glo luminescent cell viability assay kit method (Promega, #G7572, Madison, WI). Diffuse large B cell lymphoma cell strain TMD-8 cell strain is purchased from American Type Culture Collection (ATCC). After the cells were digested from a cell culture dish by pancreatin and re-suspended by DPBS culture medium, a Scepter automatic cell counter (Millipore, #PHCC00000) was used for counting to measure a cell density. The cells were diluted to be a solution containing 44,000 cells per milliliter. The cell solution with the adjusted density was added into a cell assay plate with 90 μl per well. The well plate was placed to an incubator with 5% CO2 at 37° C. to be incubated for 24 hours and then added with the compound to be tested with different concentrations. The cells and the compound were together incubated for 72 hours in the presence of 10% fetal calf serum. The content of ATP was measured by using CellTiter-Glo® Luminescent Cell Viability Assay kit (referring to manufacturer's instruction) to evaluate the inhibition to the cell growth. Briefly speaking, each well was added with 30 μl of CellTiter-Glo® reagent, the plate was shaken for 10 minutes to induce the cells to be lysed, and fluorescence signal was detected and recorded by fluorescence/chemiluminescence analyzer Fluoroskan Ascent FL (Thermo Scientific Fluoroskan Ascent FL). The maximal signal value was obtained from cells processed by dimethyl sulfoxide (DMSO) for 72 or 120 hours. The minimal signal value obtained from separate culture medium (wherein the number of cells was zero) was defined as 0. Inhibition ratio %=(maximal signal value−compound signal value)/(maximal signal value−minimal signal value)×100%. The data was processed by using GraphPad Prism V5.0 (GraphPad Software, San Diego, CA) software. IC50 value was fitted and calculated via S-shaped dose-response curve.

BTK, sequence (Q06187 whole entry): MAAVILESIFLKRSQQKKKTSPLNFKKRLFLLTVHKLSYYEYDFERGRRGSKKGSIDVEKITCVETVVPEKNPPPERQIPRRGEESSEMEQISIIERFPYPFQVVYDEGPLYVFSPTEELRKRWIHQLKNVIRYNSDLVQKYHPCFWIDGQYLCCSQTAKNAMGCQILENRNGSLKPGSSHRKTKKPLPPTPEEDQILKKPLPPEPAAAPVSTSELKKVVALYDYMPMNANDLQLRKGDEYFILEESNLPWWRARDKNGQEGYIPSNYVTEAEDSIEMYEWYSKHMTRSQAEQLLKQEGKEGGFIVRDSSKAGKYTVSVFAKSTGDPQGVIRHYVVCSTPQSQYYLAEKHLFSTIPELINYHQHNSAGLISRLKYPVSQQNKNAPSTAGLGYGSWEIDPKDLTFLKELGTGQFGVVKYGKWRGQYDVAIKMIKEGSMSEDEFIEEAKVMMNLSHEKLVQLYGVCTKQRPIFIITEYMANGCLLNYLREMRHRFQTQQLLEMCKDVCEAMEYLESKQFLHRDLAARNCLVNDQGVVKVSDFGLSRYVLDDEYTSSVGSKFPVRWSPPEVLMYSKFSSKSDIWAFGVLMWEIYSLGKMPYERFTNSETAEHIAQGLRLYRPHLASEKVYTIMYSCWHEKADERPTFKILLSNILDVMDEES

Row | Compound | IC50 (BTK) | IC50 [1]
1 | CC#CC(=O)N[C@H]1CCCN(c2nc(-c3ccc(Oc4ccccc4)cc3)c(C(N)=O)c3[nH]c(=O)[nH]c23)C1 [Compound 1, (S)-4-(3-(but-2-ynamido)piperidin-1-yl)-2-oxo-6-(4-phenoxyphenyl)-2,3-dihydro-1H-imidazo[4,5-c]pyridine-7-carboxamide] | ≤ 0.01 µM | 
2 | CC#CC(=O)N[C@H]1CCCN(c2nc(-c3ccc(Oc4ccccc4)cc3)c(C(N)=O)c3[nH]ncc23)C1 [Compound 2, (S)-4-(3-(but-2-ynamido)piperidin-1-yl)-6-(4-phenoxyphenyl)-1H-pyrazolo [4,5-c]pyridine-7-carboxamide] | ≤ 0.01 µM | 
3 | C=CC(=O)N[C@H]1CCCN(c2nc(-c3ccc(Oc4ccccc4)cc3)c(C(N)=O)c3[nH]c(=O)[nH]c23)C1 [Compound 3, (S)-4-(3-acrylamidopiperidin-1-yl)-2-oxo-6-(4-phenoxyphenyl)-2,3-dihydro-1H-imidazo[4,5-c]pyridine-7-carboxamide] | ≤ 0.01 µM | 
4 | CC#CC(=O)N[C@H]1CCN(c2nc(-c3ccc(Oc4ccccc4)cc3)c(C(N)=O)c3[nH]c(=O)[nH]c23)C1 [Compound 5, (S)-4-(3-(but-2-ynamido)pyrrolidin-1-yl)-2-oxo-6-(4-phenoxyphenyl)-2,3-dihydro-1H-imidazo[4,5-c]pyridine-7-carboxamide] | ≤ 0.01 µM | 
5 | CC#CC(=O)N[C@@H]1CCCN(c2nc(-c3ccc(Oc4ccccc4)cc3)c(C(N)=O)c3[nH]c(=O)[nH]c23)C1 [Compound 6, (R)-4-(3-(but-2-ynamido)piperidin-1-yl)-2-oxo-6-(4-phenoxyphenyl)-2,3-dihydro-1H-imidazo[4,5-c]pyridine-7-carboxamide] | ≤ 0.01 µM | 
6 | CC#CC(=O)N[C@@H]1CCN(c2nc(-c3ccc(Oc4ccccc4)cc3)c(C(N)=O)c3[nH]c(=O)[nH]c23)C1 [Compound 9, (R)-4-(3-(but-2-ynamido)pyrrolidin-1-yl)-2-oxo-6-(4-phenoxyphenyl)-2,3-dihydro-1H-imidazo[4,5-c]pyridine-7-carboxamide] | ≤ 0.01 µM | 
7 | CC#CC(=O)N[C@H]1CCCN(c2nc(-c3ccc(Oc4ccccc4)cc3)c(C(N)=O)c3[nH]cnc23)C1 [Compound 18, (S)-4-(3-(but-2-ynamido)piperidin-1-yl)-6-(4-phenoxyphenyl)-1H-imidazo[4,5-c]pyridine-7-carboxamide] | ≤ 0.01 µM | 
8 | CC#CC(=O)N[C@H]1CCCN(c2nc(-c3ccc(Oc4ccccc4)cc3)c(C(N)=O)c3[nH]c(C)nc23)C1 [Compound 19, (S)-4-(3-(but-2-ynamido)piperidin-1-yl)-2-methyl-6-(4-phenoxyphenyl)-1H-imidazo[4,5-c]pyridine-7-carboxamide] | ≤ 0.01 µM | 
9 | C=CC(=O)N1CCC(c2nc(-c3ccc(Oc4ccccc4)cc3)c(C(N)=O)c3[nH]c(=O)[nH]c23)CC1 [Compound 20, 4-(1-acryloylpiperidin-4-yl)-2-oxo-6-(4-phenoxyphenyl)-2,3-dihydro-1H-imidazo[4,5-c]pyridine-7-carboxamide] | ≤ 0.01 µM | 
10 | CC#CC(=O)N[C@H]1CCCN(c2nc(-c3ccc(Oc4ccccc4)cc3)c(C(N)=O)c3[nH]ccc23)C1 [Compound 23, (S)-4-(3-(but-2-ynamido)piperidin-1-yl)-6-(4-phenoxyphenyl)-1H-pyrrolo[3,2-c]pyridine-7-carboxamide] | ≤ 0.01 µM | ≤ 0.01 µM
11 | CC#CC(=O)N[C@@H]1CCCN(c2nc(-c3ccc(Oc4ccccc4)cc3)c(C(N)=O)c3[nH]ccc23)C1 [Compound 24, (R)-4-(3-(but-2-ynamido)piperidin-1-yl)-6-(4-phenoxyphenyl)-1H-pyrrolo[3,2-c]pyridine-7-carboxamide] | ≤ 0.01 µM | 
12 | C=CC(=O)N1CCC(c2nc(-c3ccc(Oc4ccccc4)cc3)c(C(N)=O)c3[nH]ccc23)CC1 [Compound 25, 4-(1-acryloylpiperidin-4-yl)-6-(4-phenoxyphenyl)-1H-pyrrolo [3,2-c]pyridine-7-carboxamide] | ≤ 0.01 µM | ≤ 0.01 µM
13 | C=CC(=O)N1CCC[C@H](c2nc(-c3ccc(Oc4ccccc4)cc3)c(C(N)=O)c3[nH]ccc23)C1 [Compound 26, (S)-4-(1-acryloylpiperidin-3-yl)-6-(4-phenoxyphenyl)-1H-pyrrolo[3,2-c]pyridine-7-carboxamide] | ≤ 0.01 µM | ≤ 0.01 µM
14 | C=CC(=O)N1CCC[C@@H](c2nc(-c3ccc(Oc4ccccc4)cc3)c(C(N)=O)c3[nH]ccc23)C1 [Compound 27, (R)-4-(1-acryloylpiperidin-3-yl)-6-(4-phenoxyphenyl)-1H-pyrrolo[3,2-c]pyridine-7-carboxamide] | ≤ 0.01 µM | ≤ 0.01 µM
15 | CC#CC(=O)N[C@H]1CCCN(c2ncc(C(N)=O)c3[nH]c(=O)c(=O)[nH]c23)C1 [Compound 28, (S)-5-(3-(but-2-ynamido)piperidin-1-yl)-2,3-dioxo-1,2,3,4-tetrahydropyrido[3,4-b]pyrazine-8-carboxamide] | ≤ 0.01 µM | 
16 | CC#CC(=O)N[C@H]1CCCN(c2ncc(C(N)=O)c3[nH]cnc23)C1 [Compound 36, (S)-4-(3-(but-2-ynamido)piperidin-1-yl)-1H-imidazo[4,5-c]pyridine-7-carboxamide] | ≤ 0.01 µM | 
17 | CC#CC(=O)N[C@H]1CCCN(c2ncc(C(N)=O)c3[nH]c(=O)[nH]c23)C1 [Compound 38, (S)-4-(3-(but-2-ynamido)piperidin-1-yl)-2-oxo-2,3-dihydro-1H-imidazo[4,5-c]pyridine-7-carboxamide] | ≤ 0.01 µM | ≤ 0.01 µM
18 | C=CC(=O)N1CCC(c2ncc(C(N)=O)c3[nH]c(=O)[nH]c23)CC1 [Compound 40, 4-(1-acryloylpiperidin-4-yl)-2-oxo-2,3-dihydro-1H-imidazo[4,5-c]pyridine-7-carboxamide] | ≤ 0.01 µM | ≤ 0.01 µM
19 | (R)-4-(3-(but-2-ynamido)piperidin-1-yl)-6-(4-phenoxyphenyl)-1H-pyrazolo [4,3-c]pyridine-7-carboxamide [Compound 7] | ≤ 0.01 µM | 
20 | (R)-4-(3-acrylamidopiperidin-1-yl)-2-oxo-6-(4-phenoxyphenyl)-2,3-dihydro-1H-imidazo[4,5-c]pyridine-7-carboxamide [Compound 8] | ≤ 0.01 µM | 
21 | (S)-4-(3-acrylamidopyrrolidin-1-yl)-2-oxo-6-(4-phenoxyphenyl)-2,3-dihydro-1H-imidazo[4,5-c]pyridine-7-carboxamide [Compound 4] | ≤ 0.01 µM | 
